What was measured:
[1] = system: HaCaT cells; assay: MTT assay on HaCaT cells; assay type: cell-based; conditions: Homo sapiens; HaCaT cells, 72 h, MTT; read-out: IC50
Description: HaCaT (human, adult, low calcium, high temperature, skin keratinocyte) cell suspension was adjusted to 5×10^3 cells per well and seeded in 96-well plates, then incubated at 37° C. with 5% CO2. After 24 h, 10 mM stock solutions of N1-N13 in autoclaved milli-Q water were prepared and serially diluted concentrations were added to the wells. Each concentration was performed in 6-replicates, and seeded wells with only media and no compound were used as controls while wells with only media were used as blanks. The plate was incubated for 72 h, after which 100 μL of MTT reagent was added and the plate was further incubated for 3 h before adding 100 μL of DMSO. Subsequently, the plate was shaken for 20 min, and then absorbance at 570 nm was determined using a Bio-Tek plate reader.

[2] = Skin permeation study, Franz diffusion cell; assay type: in vitro ADME, porcine; conditions: for Cumulative amount at 8th hour: 1% w/v in deionized water; for Cumulative amount at 8th hour / Cumulative amount comparison of PPD vs derivatives (times less than PPD) / Permeated through skin into receptor / Recovered in donor compartment / Recovered in skin / Recovered in skin outside diffusion area / Recovered in skin swabs / Recovered on parafilm and in washes: 8 h; for Permeated through skin into receptor / Recovered in donor compartment / Recovered in skin / Recovered in skin outside diffusion area / Recovered in skin swabs / Recovered on parafilm and in washes: mass balance; for recovery at 8 h, 1 % w/v: pig, end of 8 h, read-out: Total recovery (mean percentage parent compound recovery)
Description: In each Franz cell, a piece of pig ear skin prepared to a thickness of […] was clamped securely. 5 mL of PBS solution was added to the receiver compartment which was purged of air bubbles to ensure maximal contact of the skin piece with the solution. Donor solution was prepared by dissolving N1-N13 in deionized water at 1% w/v, and 900 μL was added to the donor compartment. The study was conducted for 8 h, and aliquots of 200 μL were removed from the receiver solution and topped up with fresh PBS at each timepoint of 15-minutes intervals for the first hour and every hour after that.
For mass balance, at the end of 8 h, skin pieces and swabs of the top and bottom surface of the skin were collected and stored in ACN for N1-N13 extraction. Donor solution and receiver solution were also collected.
The aliquot samples collected were subjected to 2-step extraction using 750 μL of dichloromethane (DCM). […] The solvent was dried using the TurboVap, and then reconstituted with 198 μL of 0.1% formic acid in 50% methanol in water and spiked with 2 μL of ANP (internal standard). The processed aliquot samples and mass balance samples were then sent for analysis using LC-MS/MS. The compounds' steady state fluxes and permeability coefficients were then calculated by fitting the solution to Fick's […] of diffusion at the steady state (linear part) of each experimental cumulative amount curve.

[3] = system: THP-1 cells; assay: MTT assay on THP-1 cells (CV75); assay type: cell-based, human; conditions: THP-1 cells, 24 h
Description: THP-1 (human acute monocytic leukaemia cell line) cell suspension was adjusted to 1×10^5 cells per well and seeded in 96-well plates. The plate was incubated at 37° C. with 5% CO2. After 24 h, 10 mM stock solutions of N1-N13 were prepared in autoclaved milli-Q water. A series of concentrations diluted in media was prepared and added to the wells. Each concentration was performed in 6-replicates, and seeded wells with only media and no compound were used as controls while wells with only media were used as blanks. The plate was incubated for 24 h, after which 100 μL of MTT reagent was added and the plate was further incubated for 3 h before adding 100 μL of DMSO. Subsequently, the plate was shaken for 20 min, and then absorbance at 570 nm was determined using a Bio-Tek plate reader. Percentage cell viability was calculated and CV75 values were determined.

[4] = Hair nuance test; set-up: key to L* / a* / b*: CIELAB L*, a*, b* coordinates; key to ΔE (total colour difference to natural hair): ΔE = √((L*−L0)²+(a*−a0)²+(b*−b0)²) vs untreated hair; conditions: for eventual colour of bleached hair, Type A: Type A (Non-oxidative) formulation; for eventual colour of bleached hair, Type B: Type B (Oxidative, H2O2) formulation; for eventual colour of bleached hair, Type C: Type C (Oxidative with coupler resorcinol) formulation
Description: 35 g of bleaching powder was mixed with 50 mL of developer then applied onto undyed black hair (wrapped in aluminium foil to enhance the bleaching process) and left on for 45 min. The hair was then rinsed with deionized water and shampoo and left to dry. This process was repeated twice.
Hair dye formulations were prepared from N1-N13 according to methods reported (New Journal of Chemistry. 2019; 43(41):16188-99), and with the compositions stated in Table 11 Bleached hair samples were immersed into the respective formulations for 20 min, then air dried for 20 min. Then they were shampooed twice and treated with conditioner for 5 min.
SkinColorCatch (Delfin Technologies Ltd, Kuopio, Finland) was used to measure CIELAB tristimulus L*, a* and b* values of the dyed hair samples and baseline L0, a0, b0 values from untreated hair. The difference in colour tone (ΔH) and the total colour difference (ΔE) were then derived from the values obtained with the equations below:
ΔH=√{square root over ((a*−a0)^2+(b*−b0)^2)}
ΔE=√{square root over ((L*−L0)^2+(a*−a0)^2+(b*−b0)^2)}

[5] = Type C (Oxidative with coupler resorcinol)

Structure (SMILES) | IC50 [1] [µM] | Cumulative amount comparison of PPD vs derivatives (times less than PPD) [2] | Permeated through skin into receptor [2] | Recovered in donor compartment [2] | Recovered in skin [2] | Recovered in skin outside diffusion area [2] | Recovered in skin swabs [2] | Recovered on parafilm and in washes [2] | recovery at 8 h, 1 % w/v [2] [%] | CV75 (concentration affording 75% cell viability), 1 × CV75 [3] [µg/mL] | L* ([4]; Type A (Non-oxidative)) | a* ([4]; Type A (Non-oxidative)) | b* ([4]; Type A (Non-oxidative)) | ΔE (total colour difference to natural hair) ([4]; Type A (Non-oxidative)) | ΔH (difference in colour tone) ([4]; Type A (Non-oxidative)) | eventual colour of bleached hair, Type A [4] | L* ([4]; Type B (Oxidative)) | a* ([4]; Type B (Oxidative)) | b* ([4]; Type B (Oxidative)) | ΔE (total colour difference to natural hair) ([4]; Type B (Oxidative)) | further results
Nc1ccc(N)c(OCOCO)c1 [Compound N8, ((2,5-diaminophenoxy)methoxy)methanol] | 219 | 640 | <0.001 % of applied compound dose | 95.0 % of applied compound dose | 0.06 % of applied compound dose | 0.0018 % of applied compound dose | 0.02 % of applied compound dose | 0.004 % of applied compound dose | 95.1 ± 1.3 | 141 | 12 | −1 | 6 | 5.91 | 2.43 | Black | 9 | 0 | −1 | 2 | Cumulative amount at 8th hour [2]: 0.00843 μg/cm^2; ΔH (difference in colour tone) ([4]; Type B (Oxidative)): 1.41; eventual colour of bleached hair, Type B [4]: black colour; L* [4, 5]: 10; a* [4, 5]: 0; b* [4, 5]: 3; ΔE (total colour difference to natural hair) [4, 5]: 2.23; ΔH (difference in colour tone) [4, 5]: 1.49; eventual colour of bleached hair, Type C [4]: Brown
Nc1ccc(N)c(OCCO)c1 [Compound N9, 2-(2,5-diaminophenoxy)ethan-1-ol] | 272 | 445 | <0.001 % of applied compound dose | 94.5 % of applied compound dose | 0.05 % of applied compound dose | 0.0022 % of applied compound dose | 0.03 % of applied compound dose | 0.003 % of applied compound dose | 94.6 ± 1.5 | 126 | 23 | 8 | 10 | 18.46 | 4.29 | brown colour | 32 | 0 | 4 | 23.19 | ΔH (difference in colour tone) ([4]; Type B (Oxidative)): 4.81; eventual colour of bleached hair, Type B [4]: brown colour; L* [4, 5]: 29; a* [4, 5]: 19; b* [4, 5]: 19; ΔE (total colour difference to natural hair) [4, 5]: 32.93; ΔH (difference in colour tone) [4, 5]: 5.73; eventual colour of bleached hair, Type C [4]: vibrant blue colours and Blue
CC(O)COc1cc(N)ccc1N (centres unmarked) [Compound N10, 1-(2,5-diaminophenoxy)propan-2-ol] | 283 | 633 | <0.001 % of applied compound dose | 95.0 % of applied compound dose | 0.04 % of applied compound dose | 0.003 % of applied compound dose | 0.05 % of applied compound dose | 0.006 % of applied compound dose | 95.1 ± 1.4 | 117 | 25 | 12 | 6 | 20.61 | 4.53 | Brownish Purple | 11 | 1 | −2 | 3.74 | Cumulative amount at 8th hour [2]: 0.008 μg/cm^2; ΔH (difference in colour tone) ([4]; Type B (Oxidative)): 1.93; eventual colour of bleached hair, Type B [4]: black colour; L* [4, 5]: 30; a* [4, 5]: 18; b* [4, 5]: 18; ΔE (total colour difference to natural hair) [4, 5]: 32.46; ΔH (difference in colour tone) [4, 5]: 5.69; eventual colour of bleached hair, Type C [4]: Brown
